Here are results for 15 compounds from US20050032827A1, “Sigma ligands for neuronal regeneration and functional recovery” (priority 2003, published 2005).

One data set addresses sigma-1 site (Homo sapiens, UniProt Q99720). Conditions: (+) isomers of benzomorphan opiates; Hellewell and Bowen (1990); cited from earlier work.
Data set [1] has as its system NMDA-induced toxicity and seizures. The following applies: in vivo models; Pontecorvo et al. (1991); cited from earlier work.
The subject of data set [2] is SHR (spontaneous hypertensive) rats, stroke by MCA occlusion. Nature of the data set: Cylinder test for asymmetric forelimb use after MCA occlusion. The class given is in vivo, rat. Conditions: 0.03-10 mg/kg s.c. or p.o. from two days after MCAO for 2-8 weeks; saline control. The source says:
(§1) Male 3 months old SHR (spontaneous hypertensive) rats are used for induction of stroke by MCA occlusion. This is the preferred strain since most stroke patients are hypertensive. The animals are anesthetized with Methohexital and a small craniectomy is made above the zygmotic arch to expose the middle cerebral artery, which is occluded with a 10-0 monofilament nylon thread distal to the origin of the striatal branches. The rats are not intubated and no catheters are inserted. Following MCA occlusion a large and reproducible infarct is obtained, leading to a robust sensorimotor deficit. The animals are kept on a 6 hr light/18 h dark cycle with free access to food and water. At two days after the MCAO the rats are treated with the compound I, II, III, IV, V, VI, VII, VIII, or IX (0.03-10 mg/kg) s.c. or p.o. and a control group is given saline for 2-8 weeks. At 2, 4, 6 and 8 weeks animals are tested in the rotating pole or cylinder test
The cylinder test (modified from Schallert and Tillerson (Innovative models of CNS disease: from molecule to therapy. Clifton, N.J., Humana, 1999) is used to quantify the forelimb use for rearing on the cylinder wall. The rats are monitored as they move freely in a 20-cm-wide clear glass cylinder. Contacts made by each forepaw with the cylinder wall while rearing are scored by a blinded observer. A total of 20 contacts are recorded for each animal, and the number of impaired (left), both, and non-impaired forelimb contacts as percentage of total contacts is calculated. Baseline for rats is achieved by measuring the contacts made by each forepaw before MCAO.

Data set [3] has the same test system. The data set is described as follows: Rotating pole test after MCA occlusion. The following applies: 0.03-10 mg/kg s.c. or p.o. from two days after MCAO for 2-8 weeks; saline control. Type of data set: in vivo, rat.
Text: as §1
A score of 6-0 is given for each direction: • 6, the animal crosses the pole with no foot slips; • 5, the animal crosses the pole with a few foot slips; • 4, the animal crosses the pole, slipping 50% of the footsteps; • 3, the animal crosses the pole with more than 50% foot slips; • 2, the animal walks a bit and then rotates around the pole; • 1, the animal rotates around the pole without crossing it; • 0, the animal falls off the pole. Cylinder Test for Asymmetric Use of Forelimb Use in Spontaneous Rearing

Data set [4] deals with rat primary neuronal cultures. Conditions: Nakazawa et al. (1998); cited from earlier work.
Data set [5] has as its system cultured rat retinal neurons. Conditions: Senda et al. (1998); cited from earlier work.
A further data set deals with sigma-1 receptor (Homo sapiens, UniProt Q99720). The following applies: literature reports; cited from earlier work.
sigma-1 receptor, sequence (Q99720 whole entry): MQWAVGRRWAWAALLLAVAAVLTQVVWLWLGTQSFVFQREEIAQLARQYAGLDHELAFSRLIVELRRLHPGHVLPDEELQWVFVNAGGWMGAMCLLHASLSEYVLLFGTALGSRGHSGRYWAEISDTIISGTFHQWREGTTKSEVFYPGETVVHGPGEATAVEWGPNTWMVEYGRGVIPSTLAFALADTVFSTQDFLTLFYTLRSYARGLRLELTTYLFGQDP
The target of the next data set is sigma-2 receptor (Homo sapiens, UniProt Q5BJF2). Conditions: Perregaard et al. (1995); cited from earlier work.
sigma-2 receptor, sequence (Q5BJF2 whole entry, species assumed): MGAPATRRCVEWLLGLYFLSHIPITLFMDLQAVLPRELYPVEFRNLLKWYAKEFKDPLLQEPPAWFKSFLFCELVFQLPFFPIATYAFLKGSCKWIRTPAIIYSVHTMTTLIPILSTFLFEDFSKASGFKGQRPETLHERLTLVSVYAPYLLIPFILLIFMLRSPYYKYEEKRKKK
For data set [6] the following is noted: hydrohalide salts, in particular the hydrochloride salt; WO 99/24436; cited from earlier work.
Data set [7] concerns hypertensive rats exposed to permanent middle artery occlusion (MCAO), a model of ischemic stroke. Nature of the data set: Morris water maze after permanent MCAO. The class given is in vivo, rat. The following applies: for Latency to Find Hidden Platform, TRIAL 3 / Latency to Find Hidden Platform, TRIAL 4 / Latency to Find Hidden Platform, TRIAL 5 / Latency to Find Hidden Platform, TRIAL 1 / Latency to Find Hidden Platform, TRIAL 2 / Path Length to Find Hidden Platform, TRIAL 1 / Path Length to Find Hidden Platform, TRIAL 2 / Path Length to Find Hidden Platform, TRIAL 3 / Path Length to Find Hidden Platform, TRIAL 4 / Path Length to Find Hidden Platform, TRIAL 5: 14 days from day 2 after MCAO, tested day 35; for Latency to Find Hidden Platform, TRIAL 1 / Latency to Find Hidden Platform, TRIAL 2 / Path Length to Find Hidden Platform, TRIAL 1 / Path Length to Find Hidden Platform, TRIAL 2 / Path Length to Find Hidden Platform, TRIAL 3 / Path Length to Find Hidden Platform, TRIAL 4 / Path Length to Find Hidden Platform, TRIAL 5: value (SEM). The protocol:
The Morris water maze was used to assess functional recovery, in particular recovery in a cognitive skill, in hypertensive rats after exposure to permanent middle artery occlusion (MCAO), a model of ischemic stroke.
Forty three hypertensive rats were exposed to permanent middle artery occlusion (MCAO). Starting at two days after occlusion and continuing for 14 days, Siramesine was administered p.o. in doses of 0.3 mg/kg (14 rats) or 1.0 mg/kg (14 rats). In a control group (15 rats), vehicle only was administered. On day 35 after permanent MCAO, the rats were assessed for their performance in the Morris Water Maze Test.
In the test, the rats were given a series of 6 trials, 1 hour apart in a large dark-colored tank (200 cm in ) filled with clear water at a temperature of 22.0±1.5° C. A 12×12-cm submerged platform (2 mm below the water surface) was placed in the northwest quadrant of the pool. The release point was always the southern end of the pool. The rats were lowered into the pool facing the wall, and then released. Each rat was given a maximum of 90 seconds to find the submerged platform. […] After remaining on the platform for 20 seconds, the rat was removed and placed in a dry cage. One hour later, each rat was given a second trial, using the same release position and platform position, to measure the rat's retention of the platform location. The process was repeated a total of 5 times for each rat, each trial 1 hour apart. The swim paths of the rats were recorded with a computer tracking system and the latency and the length of swim path to find the hidden platform were analyzed.

Data set [8] has as its system NMDA-type of glutamate receptors. The following applies: cited from earlier work.
The subject of another data set is ischemia in gerbils. The following applies: cited from earlier work.

sigma-1 site, sequence (Q99720 whole entry): as the sequence (Q99720 whole entry) above

As to `CC(C)=CCN1CCC2(C)c3cc(O)ccc3CC1C2C` (single isomer, unassigned; (+)) [(+)pentazocine], at sigma-1 site, the “affinity for the sigma-1 site compared to the sigma-2 site” value is recorded as “nearly two orders of magnitude higher affinity for the sigma-1 site”.
Regarding `OC(CCCN1CCN(c2ncc(F)cn2)CC1)c1ccc(F)cc1` (stereo not drawn) [BMY-14802], in data set [1], the “protective effects against NMDA-induced toxicity and seizures” value (from here on “protective effects”) was “protective effects against NMDA-induced toxicity and seizures”.
As for `O=C(OCCN1CCOCC1)C1(c2ccccc2)CCCCC1` [III], in data set [2], the “performance in cylinder test versus control” value is recorded as “perform better than the group 1 control animals”. In data set [3], the “performance in rotating pole test versus control” value was “perform better than the group 1 control animals”.
Take `O=C(NC1CCN(Cc2ccccc2)CC1)c1ccc(I)cc1` [II]: in data set [2], the “performance in cylinder test versus control” value was “perform better than the group 1 control animals”. In data set [3], the “performance in rotating pole test versus control” value was “perform better than the group 1 control animals”.
For the compound `COc1ccc(CCN2CCN(CCCc3ccccc3)CC2)cc1OC` [IV], the “performance in cylinder test versus control” value in [2] was “perform better than the group 1 control animals”. For the same compound, in data set [3], the “performance in rotating pole test versus control” value is “perform better than the group 1 control animals”.
For `COc1ccc(CN2CCN(Cc3ccccc3)CC2)c(O)c1OC` [IX], the “performance in cylinder test versus control” value in [2] is reported as “perform better than the group 1 control animals”. Besides, the “performance in rotating pole test versus control” value in data set [3] was “perform better than the group 1 control animals”.
Take `COc1ccc(CCN2CCN(CCCc3ccccc3)CC2)cc1OC` [SA4503, 1-(3,4-dimethoxyphenethyl)-4-(3-phenylpropyl) piperazine]: the “suppression of hypoxia/hypoglycemia-induced neurotoxicity” value in data set [4] is “significantly suppress hypoxia/hypoglycemia-induced neurotoxicity”. The “activity against glutamate neurotoxicity” value in data set [5] is “active against glutamate neurotoxicity”. Also, at sigma-1 receptor, the “sigma-1 receptor functional activity” value is listed as “selective sigma-1 agonist”.
Turning to `Fc1ccc(-n2cc(CCCCN3CCC4(CC3)OCc3ccccc34)c3ccccc32)cc1` [Siramesine, 1′-[4-[1-(4-fluorophenyl)-1H-indol-3-yl]-1-butyl] spiro [isobenzofuran-1(3H),4′-piperidine]], the “performance in cylinder test versus control” value in data set [2] was “perform better than the group 1 control animals”. In addition, on sigma-2 receptor, the “sigma-2 receptor functional activity” value is “selective sigma-2 agonist”. In addition, in data set [3], the “performance in rotating pole test versus control” value is given as “perform better than the group 1 control animals”. Moreover, the bioavailability result in [6] is reported as “good bioavailability”. Also, in data set [7] (0.3 mg/kg p.o.), the “Latency to Find Hidden Platform, TRIAL 3” value stood at 47.0 s; the “Latency to Find Hidden Platform, TRIAL 4” value came out at 33.1 s; the “Latency to Find Hidden Platform, TRIAL 5” value came to 15.66 s; the “Latency to Find Hidden Platform, TRIAL 1” value is reported as 72.4 (7.3) SECONDS. Further, in data set [7] (0.3 mg/kg p.o.), the “Latency to Find Hidden Platform, TRIAL 2” value is reported as 43.6 (7.9) SECONDS; the “Path Length to Find Hidden Platform, TRIAL 1” value is 14.5 (1.8) METERS; the “Path Length to Find Hidden Platform, TRIAL 2” value is given as 12.4 (2.3) METERS; the “Path Length to Find Hidden Platform, TRIAL 3” value is 14.4 (2.7) METERS. In data set [7] (0.3 mg/kg p.o.), the “Path Length to Find Hidden Platform, TRIAL 4” value is recorded as 10.4 (2.4) METERS and the “Path Length to Find Hidden Platform, TRIAL 5” value is on record as 4.3 (0.6) METERS. Further, in [7] (1.0 mg/kg p.o.), the “Latency to Find Hidden Platform, TRIAL 3” value came out at 59.99 s; the “Latency to Find Hidden Platform, TRIAL 4” value was 34.3 s; the “Latency to Find Hidden Platform, TRIAL 5” value was determined as 19.8 s; the “Latency to Find Hidden Platform, TRIAL 1” value is 62.4 (7.7) SECONDS. Moreover, in data set [7] (1.0 mg/kg p.o.), the “Latency to Find Hidden Platform, TRIAL 2” value was 62.2 (8.5) SECONDS; the “Path Length to Find Hidden Platform, TRIAL 1” value was 11.1 (1.4) METERS; the “Path Length to Find Hidden Platform, TRIAL 2” value is 16.2 (2.2) METERS; the “Path Length to Find Hidden Platform, TRIAL 3” value is on record as 16.65 (2.2) METERS. For the same compound, in data set [7] (1.0 mg/kg p.o.), the “Path Length to Find Hidden Platform, TRIAL 4” value is 9.7 (1.9) METERS and the “Path Length to Find Hidden Platform, TRIAL 5” value is recorded as 5.29 (1.5) METERS. Besides, the “functional recovery, in particular recovery in a cognitive skill” value in data set [7] (administered daily to rats from 2 days after the stroke for 14 days) was “facilitates functional recovery”. For the same compound, the “sigma-1 receptor functional activity” value at sigma-1 receptor is reported as “displays activity towards the sigma 1 receptor”.
Consider `CN(CCc1ccc(Cl)c(Cl)c1)C1CCCCC1N1CCCC1` (stereo not drawn) [VIII], for which the “performance in cylinder test versus control” value in data set [2] is “perform better than the group 1 control animals”. The “performance in rotating pole test versus control” value in data set [3] is recorded as “perform better than the group 1 control animals”.
Take `COc1cccc2c1CCC(=O)N2CCCN1CCN(c2cccc(Cl)c2)CC1` [VII]: in [2], the “performance in cylinder test versus control” value is listed as “perform better than the group 1 control animals”. In data set [3], the “performance in rotating pole test versus control” value is given as “perform better than the group 1 control animals”.
Take `CCC(C/C=C/c1ccccc1)(c1ccccc1)N(C)CC1CC1` (stereo not drawn) [VI]: the “performance in cylinder test versus control” value in [2] is “perform better than the group 1 control animals”. For the same compound, the “performance in rotating pole test versus control” value in data set [3] is “perform better than the group 1 control animals”.
Regarding `CCN(CC)CCOC(=O)C1(c2ccccc2)CCCC1` [caramiphen], in data set [1], the “protective effects” value is “protective effects against NMDA-induced toxicity and seizures”.
Consider `COCCCC/C(=N\OCCN)c1ccc(C(F)(F)F)cc1` [compound I], for which the “performance in cylinder test versus control” value in data set [2] is “perform better than the group 1 control animals”. Further, the “performance in rotating pole test versus control” value in [3] is reported as “perform better than the group 1 control animals”.
With `O=C(CCCN1CCC(O)(c2ccc(Cl)cc2)CC1)c1ccc(F)cc1` [haloperidol], in [1], the “protective effects” value was “protective effects against NMDA-induced toxicity and seizures”.
For `OCCN1CCN(CCCN2c3ccccc3C=Cc3ccccc32)CC1` [opipramol], the “modulation of NMDA-type glutamate receptors” value in data set [8] was “modulate the NMDA-type of glutamate receptors”. In addition, in the data set on ischemia in gerbils, the protection against ischemia entry is “protect against ischemia in gerbils”.
